Data from US6979740B2, “Process for preparation of ring-substituted 8-aminoquinoline analogs as antimalarial agents” (National Institute of Pharmaceutical Education and Research, priority 2003, dated 2005).
In brackets after ≈: the same amount, converted by molar mass. Entries after “also recorded” stand apart in the source; their conditions may differ.

Assays:
Mastomys coucha = assay: In vivo methemoglobin (MetHb) toxicity in Mastomys coucha; details: for (%) Methemoglobin (MetHb) Increase: Mastomys coucha, blood 4 h after administration
Method: The protocol used is as follows: In vivo MetHb-inducing properties estimation was carried out in Mastomys coucha, a rapid rodent animal model using protocols reported earlier (Srivastava, P., Singh, S., Jain, G. K., Puri, S. K., Pandey, V. C. Ecotox. Environ. Safety. 2000, 45, 236-239). Briefly; six animals per group of both sexes, 2-3 months old and body weight between 40-50 g were used for the present investigation. Drug was administered intraperitoneally (ip) or orally at various dosage for single day/three consecutive days. Primaquine is used as the standard drug for the test. It is known that primaquine is readily absorbed from the gastro-intestinal tract and peak plasma concentration reaches within 3 h and falls within an apparent elimination half time of 6 h. Keeping the above pharmacokinetic profile in mind, the blood samples were collected after 4 h of drug administration and % increase in MetHb was calculated.

[1] = tested on: P. yoelii nigeriensis (multidrug resistant strain); assay: Blood schizontocidal activity against chloroquine and mefloquine drug-resistant P. yoelii nigeriensis in mice; assay type: in vivo; details: oral, 4 doses, listed as R=H, R1=H, R2=C(CH3)3, R3=H
Method: (§1) Blood schizontocidal activity evaluation of potential antimalarial compounds against Plasmodium berghei (sensitive strain) and P. yoelii nigeriensis (resistant strain) infection in mice.
(§2) Test Procedure: On day ‘0’, groups of 6 mice each were inoculated, intraperitoneally, with 1×10^7 infected-erythrocytes, from a donor mouse. Four hours later, mice were administered test compounds/chloroquine primaquine/vehicle, orally. A total of 4 doses were given on days D‘0’, D+1, D+2, and D+3. The tail blood smears were made on day D+4 and D+7, stained with Geimsa, and examined microscopically. […] The results of blood-schizontocidal activities for the synthesized compounds are given below in Table 1.

[2] = tested on: Plasmodium berghei (sensitive strain); assay: Blood schizontocidal activity against Plasmodium berghei infection in mice; assay type: in vivo; details: P. berghei infected mice, oral, 4 doses D0 to D+3, suppressive = parasitaemia suppressed on D+4 and D+7, curative = cleared up to 28 days
Method: as §1, §2

P. falciparum = assay: In vitro antimalarial activity against P. falciparum; assay type: cell-based
Method: Protocol: Different drug dilutions [test compounds and chloroquine (positive control)] were prepared in complete RPMI (medium RPMI 1640+10% AB^+ human serum; CRPMI). Fifty μL of each dilution was transferred to the respective well of a microtiter plate in triplicates. Parasitized erythrocytes (PE; mainly rings; 4% parasitaemia; 5% hematokrit) were added to each well. Volume in each well was made up to 200 μL with CRPMI. The plates were incubated at 37° C. in a candle jar. After 24-48 h of incubation, thin smears from each well were made and stained with Giemsa. The number of PE/10,000 cells was counted. […] Using non-linear regression analysis, the IC50 of the test compounds was then calculated.

Swiss mice = assay: Acute toxicity studies in Swiss mice; assay type: in vivo
Method: A group of ten mice with equal ratio of male and female were subjected to a single dose of 5, 50, 150 and 450 mg/kg.

[3] = cited from earlier work

COc1cc(NC(C)CCCN)c2nc(C(C)(C)C)ccc2c1 (stereo not shown) [Example 43, N^8-(4-Amino-1-methylbutyl)-2-tert-butyl-6-methoxy-8-quinolinamine]
(%) Methemoglobin (MetHb) Increase (Mastomys coucha; 15 mg/kg/day x 4 days (ip)): 0% | (%) Methemoglobin (MetHb) Increase (Mastomys coucha; 15 mg/kg/day x 4 days (oral)): 0% | (%) Methemoglobin (MetHb) Increase (Mastomys coucha; 50 mg/kg (single dose) (ip)): 0% | (%) Methemoglobin (MetHb) Increase (Mastomys coucha; 50 mg/kg (single dose) (oral)): 0% | methemoglobin (MetHb) toxicity (result in words) (Mastomys coucha; in vivo): completely devoid of this toxic manifestation in vivo | Biological activity at (mg/kg/days × 4) [1]: Curative at 100 mg/kg; also recorded: Curative at 50 mg/kg; also recorded: Curative at 25 mg/kg; also recorded: Suppressive at 10 mg/kg | Biological activity at (mg/kg/days × 4) ([2]; listed as 1): curative at a dose of 10 mg/kg | Biological activity at (mg/kg/days × 4) ([2]; listed as R=H, R1=H, R2=C(CH3)3, R3=H): Curative at 10 mg/kg | IC50 (P. falciparum; Plasmodium falciparum, Erythrocyte, read-out: P. falciparum (IC50)): 0.0391 µg/mL (≈ 0.124 µM) | acute toxicity (result in words) (Swiss mice; single dose): completely safe at 50 mg/kg | % Mortality Female (Swiss mice; single dose 5 mg/kg): 0% | % Mortality Male (Swiss mice; single dose 5 mg/kg): 0% | % Mortality Total (Swiss mice; single dose 5 mg/kg): 0% | % Mortality Female (Swiss mice; single dose 50 mg/kg): 0% | % Mortality Male (Swiss mice; single dose 50 mg/kg): 0% | % Mortality Total (Swiss mice; single dose 50 mg/kg): 0% | % Mortality Female (Swiss mice; single dose 150 mg/kg): 0% | % Mortality Male (Swiss mice; single dose 150 mg/kg): 0% | % Mortality Total (Swiss mice; single dose 150 mg/kg): 0% | % Mortality Female (Swiss mice; single dose 450 mg/kg): 0% | % Mortality Male (Swiss mice; single dose 450 mg/kg): 0% | % Mortality Total (Swiss mice; single dose 450 mg/kg): 0%

COc1cc(NC(C)CCCN)c2ncccc2c1C1CCCC1 (stereo not shown) [Example 44, N^8-(4-Amino-1-methylbutyl)-5-cyclopentyl-6-methoxy-8-quinolinamine]
Biological activity at (mg/kg/days × 4) [2]: Inactive at 100 mg/kg

COc1cc(NC(C)CCCN)c2nc(C34CC5CC(CC(C5)C3)C4)ccc2c1 (stereo not shown) [Example 45, N^8-[4-Amino-1-methylbutyl)-2-adamantyl-6-methoxy-8-quinolinamine]
Biological activity at (mg/kg/days × 4) [2]: Inactive at 100 mg/kg

COc1cc(NC(C)CCCN)c2ncccc2c1C(C)C (stereo not shown) [Example 46, N^8-(4-Amino-1-methylbutyl)-5-isopropyl-6-methoxy-8-quinolinamine]
Biological activity at (mg/kg/days × 4) [2]: Inactive at 100 mg/kg

COc1cc(NC(C)CCCN)c2ncccc2c1C1CCCCC1 (stereo not shown) [Example 47, N^8-(4-Amino-1-methylbutyl)-5-cyclohexyl-6-methoxy-8-quinolinamine]
Biological activity at (mg/kg/days × 4) [2]: Inactive at 100 mg/kg

COc1cc(NC(C)CCCN)c2nc(C3CCCC3)ccc2c1C1CCCC1 (stereo not shown) [Example 48, N^8-(4-Amino-1-methylbutyl)-2,5-dicyclopentyl-6-methoxy-8-quinolinamine]
Biological activity at (mg/kg/days × 4) [2]: Inactive at 100 mg/kg

COc1cc(NC(C)CCCN)c2nc(C(C)C)ccc2c1C(C)C (stereo not shown) [Example 49, N^8-(4-Amino-1-methylbutyl)-2,5-diisopropyl-6-methoxy-8-quinolinamine]
Biological activity at (mg/kg/days × 4) [2]: Inactive at 100 mg/kg

COc1cc(NC(C)CCCN)c2nc(C3CCCCC3)ccc2c1C1CCCCC1 (stereo not shown) [Example 50, N^8-(4-Amino-1-methylbutyl)-2,5-dicyclohexyl-6-methoxy-8-quinolinamine]
Biological activity at (mg/kg/days × 4) [2]: Inactive at 100 mg/kg

COc1cc(NC(C)CCCN)c2nc(C(C)(C)C)ccc2c1OC (stereo not shown) [Example 51, N^8-(4-Amino-1-methylbutyl)-2-tert-butyl-5,6-dimethoxy-8-quinolinamine]
Biological activity at (mg/kg/days × 4) [2]: Inactive at 100 mg/kg

CCCCCOc1c(OC)cc(NC(C)CCCN)c2nc(C(C)(C)C)cc(CC)c12 (stereo not shown) [Example 54, N^8-(4-Amino-1-methylbutyl)-2-tert-butyl-4-ethyl-6-methoxy-5-pentoxy-8-quinolin-amine]
Biological activity at (mg/kg/days × 4) [2]: Curative at 100 mg/kg

CCCCCCCCOc1c(OC)cc(NC(C)CCCN)c2nc(C(C)(C)C)cc(CC)c12 (stereo not shown) [Example 55, N^8-(4-Amino-1-methylbutyl)-2-tert-butyl-4-ethyl-6-methoxy-5-octoxy-8-quinolin-amine]
Biological activity at (mg/kg/days × 4) [2]: Curative at 100 mg/kg

COc1cc(NCCC(C)CN)c2nc(C(C)(C)C)cc(C)c2c1OC (stereo not shown) [Example 56, N^8-(4-Amino-3-methylbutyl)-2-tert-butyl-5,6-methoxy-4-methyl-8-quinolinamine]
Biological activity at (mg/kg/days × 4) [2]: Curative at 100 mg/kg

COc1cc(NC(C)CCCNC(=O)[C@@H](N)CCCN)c2nc(C(C)(C)C)ccc2c1 (stereo partly drawn) [Example 61, N^1-[4-(2-tert-Butyl-6-methoxy-8-quinolylamino)pentyl]-(2S)-2,5-diaminopentamide]
Biological activity at (mg/kg/days × 4) [2]: Curative at 100 mg/kg

COc1cc(NC(C)CCCNC(=O)[C@@H](N)CCCCN)c2nc(C(C)(C)C)ccc2c1 (stereo partly drawn) [Example 63, N^1-[4-(2-tert-Butyl-6-methoxy-8-quinolylamino)pentyl]-(2S)-2-6-diaminohexanamide]
Biological activity at (mg/kg/days × 4) ([2]; listed as 17): suppressive activity at 10 mg/kg | Biological activity at (mg/kg/days × 4) ([2]; listed as R=H, R1=H, R2=C(CH3)3, R3=S-(Lys)): Suppressive at 10 mg/kg

COc1cc(NC(C)CCCNC(=O)[C@H](C)N)c2nc(C(C)(C)C)ccc2c1 (stereo partly drawn) [Example 64, N^1-[4-(2-tert-Butyl-6-methoxy-8-quinolylamino)pentyl]-(2S)-2-aminopropanamide]
Biological activity at (mg/kg/days × 4) ([2]; listed as 18): suppressive activity at 10 mg/kg | Biological activity at (mg/kg/days × 4) ([2]; listed as R=H, R1=H, R2=C(CH3)3, R3=S-(Ala)): Suppressive at 10 mg/kg

COc1cc(NC(C)CCCN)c2ncccc2c1 (stereo not shown) [Primaquine, N^8-(4-amino-1-methylbutyl)-6-methoxy-8-quinolinamine, reference compound]
(%) Methemoglobin (MetHb) Increase (Mastomys coucha; 15 mg/kg/day x 4 days (ip)): 3.38% | (%) Methemoglobin (MetHb) Increase (Mastomys coucha; 15 mg/kg/day x 4 days (oral)): 3.57% | (%) Methemoglobin (MetHb) Increase (Mastomys coucha; 50 mg/kg (single dose) (ip)): 3.38% | (%) Methemoglobin (MetHb) Increase (Mastomys coucha; 50 mg/kg (single dose) (oral)): 2.58% | time to peak plasma concentration ([3]; absorbed from the gastro-intestinal tract, known property): ≤ 3 h | half-life ([3]; known property of the drug): 4 to 6 h | apparent elimination half time ([3]; known property): 6 h | P. falciparum (IC50) (P. falciparum; parasitized erythrocytes, 24-48 h incubation): Not active
